Experimental findings from article PMC6756013, “B591, a novel specific pan-PI3K inhibitor, preferentially targets cancer stem cells” (Oncogene, 2019) are described below.

pIC50: −log10 of the molar value.

Assay [1] relates to CHO cells stably expressing EGFP-Akt1. The experiment in a line: Akt1 redistribution (IGF-1-stimulated membrane translocation of EGFP-Akt1). In kind it is cell-based. From the text:
Growth factors such as insulin-like growth factor 1 (IGF-1) and cytokines such as interleukin-6 stimulate and activate PI3K, leading to a subsequent increase of plasma membrane translocation and phosphorylation of Akt. Activated Akt promotes cell survival, cell growth and proliferation in human cancers.
Fig. 2 B591 inhibits PI3K/Akt pathway in multiple cancer cell lines. a Representative images of Akt1 redistribution in IGF-1-treated cells in the absence or presence of B591. Scale bar represents 10 μm. Arrows indicate IGF-1-mediated membrane translocation detected by the image analysis algorithm. b Inhibition of mTORC1 and mTORC2 signaling in multiple cancer cell lines, exposed for 5 h to increasing concentrations of B591. c HepG2 cells were treated with DMSO or 20 μM of B591 for 5 h. Immunofluorescence (red) intensity reflects eIF4E subcellular distribution. Cells were visualized with high content reader. Representative images are shown, and scale bar represents 50 μm. d Nuclear-to-cytoplasmic ratio of eIF4E in five cancer cell lines was determined via high content reader. e The phosphorylation of AKT and ERK was determined by immunoblotting in RD cells in the presence of 10 μM of B591 after indicated time of exposure. f Inhibition of the phosphorylation of AKT and ERK in RD cells treated with B591, PI-103 or Rapamycin for 24 h was determined by immunoblotting […]

Assay [2] has as its target SYK (Homo sapiens, UniProt P43405). The experiment in a line: Biochemical kinase profiling (Life Technologies). The procedure:
(§1) Purified PI3K Class I Lipid Kinase, including p110α/p85α, p110β/p85α, p110γ, and p110δ/p85α (Promega, Madison, WI, USA), was respectively incubated with B591 for 30 min at room temperature. The activity of PI3K was evaluated using a PI3-Kinase Activity ELISA kit (K-1000s, Echelon, Salt Lake City, UT, USA) according to the manufacture’s instructions. The assay is a competitive ELISA in which the signal is inversely proportional to the amount of PI(3,4,5)P3 produced. After the PI3-Kinase reactions are complete, reaction products are first mixed and incubated with a PI(3,4,5)P3 detector protein, then added to the PI(3,4,5)P3-coated microplate for competitive binding. A peroxidase-linked secondary detector and colorimetric detection is used to detect PI(3,4,5)P3 detector binding to the plate. The colorimetric signal is inversely proportional to the amount of PI(3,4,5)P3 produced by PI3-Kinase. The absorbance was measured at 450 nm with a Multilabel Reader (PerkinElmer, Waltham, MA, USA). ATP competition assays were executed with varying concentrations of ATP, and five concentrations of ATP were 5 μM, 25 μM, 50 μM, 100 μM, and 200 μM respectively. The IC50 values for inhibition of PI3Kβ by B591 were determined at indicated concentrations of ATP. In addition, B591 selectivity was tested against 39 kinases at Life Technologies.

The target in assay [3] is AMPK A1/B1/G1 (Homo sapiens, UniProt P54619+Q13131+Q9Y478). As to the kind of experiment: Biochemical kinase profiling (Life Technologies). On the procedure: as §1
Assay [4] concerns the target T1, FGFR3 (Homo sapiens, UniProt P22607).
T1 construct: purchased Life Technologies
As to the kind of experiment: Biochemical kinase profiling (Life Technologies). On the procedure:
as §1

Assay [5] addresses PIK3C2B (PI3K-C2 beta) (Homo sapiens, UniProt O00750). The experiment in a line: Biochemical kinase profiling (Life Technologies). The procedure: as §1
For assay [6], the target named is T2, FGFR1 (Homo sapiens, UniProt P11362).
T2 construct: purchased Life Technologies
T2 sequence (P11362 22-822): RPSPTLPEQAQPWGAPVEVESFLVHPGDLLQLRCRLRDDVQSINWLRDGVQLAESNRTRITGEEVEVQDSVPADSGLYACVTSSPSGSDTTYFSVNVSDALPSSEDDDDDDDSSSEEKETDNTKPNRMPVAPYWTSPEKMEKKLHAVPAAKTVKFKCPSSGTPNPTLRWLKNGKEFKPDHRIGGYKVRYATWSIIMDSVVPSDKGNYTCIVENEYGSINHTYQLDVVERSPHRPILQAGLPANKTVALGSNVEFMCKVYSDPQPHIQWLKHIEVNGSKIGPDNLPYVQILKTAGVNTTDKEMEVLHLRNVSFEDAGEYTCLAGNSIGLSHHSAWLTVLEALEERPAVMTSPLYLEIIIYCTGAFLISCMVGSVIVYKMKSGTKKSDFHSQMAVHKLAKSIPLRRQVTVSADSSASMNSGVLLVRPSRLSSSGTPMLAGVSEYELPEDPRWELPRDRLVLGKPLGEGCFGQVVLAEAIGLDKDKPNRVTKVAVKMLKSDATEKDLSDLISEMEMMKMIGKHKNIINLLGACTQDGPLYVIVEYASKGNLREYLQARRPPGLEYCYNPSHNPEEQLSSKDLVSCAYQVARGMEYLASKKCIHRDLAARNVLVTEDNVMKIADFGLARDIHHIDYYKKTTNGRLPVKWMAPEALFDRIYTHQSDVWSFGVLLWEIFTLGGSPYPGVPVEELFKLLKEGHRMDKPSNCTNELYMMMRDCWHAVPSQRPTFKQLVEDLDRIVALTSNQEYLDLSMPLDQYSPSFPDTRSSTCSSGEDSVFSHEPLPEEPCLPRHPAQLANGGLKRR
The experiment in a line: Biochemical kinase profiling (Life Technologies). The procedure: as §1

Assay [7] addresses T3, KDR (VEGFR2) (Homo sapiens, UniProt P35968).
T3 construct: purchased Life Technologies
As to the kind of experiment: Biochemical kinase profiling (Life Technologies). The procedure: as §1

For assay [8], the target named is T4, PRKCZ (PKC zeta) (Homo sapiens, UniProt Q05513).
T4 construct: purchased Life Technologies
The experiment in a line: Biochemical kinase profiling (Life Technologies). On the procedure: as §1

Assay [9] deals with T5, MET (cMet) (Homo sapiens, UniProt P08581).
T5 construct: purchased Life Technologies
T5 sequence (P08581 25-1390): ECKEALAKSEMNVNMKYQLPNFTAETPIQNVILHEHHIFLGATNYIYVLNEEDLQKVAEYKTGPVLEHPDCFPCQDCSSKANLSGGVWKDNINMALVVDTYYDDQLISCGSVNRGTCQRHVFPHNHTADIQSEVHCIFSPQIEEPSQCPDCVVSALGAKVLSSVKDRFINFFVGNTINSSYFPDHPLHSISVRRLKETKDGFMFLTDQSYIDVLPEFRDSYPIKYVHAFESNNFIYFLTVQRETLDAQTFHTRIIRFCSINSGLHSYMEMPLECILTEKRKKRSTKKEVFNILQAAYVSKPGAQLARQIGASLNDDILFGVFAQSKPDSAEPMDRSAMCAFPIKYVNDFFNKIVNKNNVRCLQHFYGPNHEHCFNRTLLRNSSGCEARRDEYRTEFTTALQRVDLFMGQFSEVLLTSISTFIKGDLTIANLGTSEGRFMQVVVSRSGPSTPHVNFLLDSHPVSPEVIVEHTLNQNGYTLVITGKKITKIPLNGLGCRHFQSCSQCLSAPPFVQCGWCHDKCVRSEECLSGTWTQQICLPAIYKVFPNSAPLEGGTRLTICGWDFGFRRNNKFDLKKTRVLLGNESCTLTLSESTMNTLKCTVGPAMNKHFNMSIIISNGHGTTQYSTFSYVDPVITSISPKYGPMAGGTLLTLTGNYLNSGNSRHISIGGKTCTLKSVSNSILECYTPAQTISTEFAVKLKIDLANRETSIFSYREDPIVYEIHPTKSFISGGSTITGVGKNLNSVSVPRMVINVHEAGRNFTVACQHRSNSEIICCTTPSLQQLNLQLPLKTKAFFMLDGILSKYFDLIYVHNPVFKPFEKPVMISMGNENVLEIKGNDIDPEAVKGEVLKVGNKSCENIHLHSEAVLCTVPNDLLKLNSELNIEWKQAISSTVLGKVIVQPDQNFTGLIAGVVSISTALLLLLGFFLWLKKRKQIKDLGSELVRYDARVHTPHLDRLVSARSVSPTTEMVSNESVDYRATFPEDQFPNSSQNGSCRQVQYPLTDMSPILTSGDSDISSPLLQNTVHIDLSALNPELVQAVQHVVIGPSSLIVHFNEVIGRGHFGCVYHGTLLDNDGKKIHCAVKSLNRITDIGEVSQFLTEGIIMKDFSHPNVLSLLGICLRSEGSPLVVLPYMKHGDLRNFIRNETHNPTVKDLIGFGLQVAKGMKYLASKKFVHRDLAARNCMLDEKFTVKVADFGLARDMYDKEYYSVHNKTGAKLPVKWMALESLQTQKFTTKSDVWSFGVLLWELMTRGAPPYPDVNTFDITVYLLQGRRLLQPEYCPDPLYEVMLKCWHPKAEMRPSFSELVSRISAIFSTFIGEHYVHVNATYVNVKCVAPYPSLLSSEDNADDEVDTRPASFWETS
The experiment in a line: Biochemical kinase profiling (Life Technologies). On the procedure:
as §1

Assay [10] has as its target JAK1 (Homo sapiens, UniProt P23458). As to the kind of experiment: Biochemical kinase profiling (Life Technologies). On the procedure:
as §1

Assay [11] has as its target PIK3C2A (PI3K-C2 alpha) (Homo sapiens, UniProt O00443). As to the kind of experiment: Biochemical kinase profiling (Life Technologies). The procedure:
as §1

Assay [12] addresses T6, EPHA8 (Homo sapiens, UniProt P29322).
T6 construct: purchased Life Technologies
The experiment in a line: Biochemical kinase profiling (Life Technologies). On the procedure:
as §1

The target in assay [13] is T7, FGFR2 (Homo sapiens, UniProt P21802).
T7 construct: purchased Life Technologies
The experiment in a line: Biochemical kinase profiling (Life Technologies). On the procedure: as §1

For assay [14], the target named is T8, PDGFRA (PDGFR alpha) (Homo sapiens, UniProt P16234).
T8 construct: purchased Life Technologies
The experiment in a line: Biochemical kinase profiling (Life Technologies). The procedure:
as §1

Assay [15] concerns the target IGF1R (Homo sapiens, UniProt P08069). As to the kind of experiment: Biochemical kinase profiling (Life Technologies). On the procedure:
as §1

Assay [16] has as its target LYN A (Homo sapiens, UniProt P07948). As to the kind of experiment: Biochemical kinase profiling (Life Technologies). The procedure: as §1
In assay [17] the target is T9, RPS6KB1 (p70S6K) (Homo sapiens, UniProt P23443).
T9 construct: purchased Life Technologies
The experiment in a line: Biochemical kinase profiling (Life Technologies). The procedure: as §1

Assay [18] has as its target AKT3 (PKB gamma) (Homo sapiens, UniProt Q9Y243). As to the kind of experiment: Biochemical kinase profiling (Life Technologies). On the procedure: as §1
The target of assay [19] is T10, EPHA1 (Homo sapiens, UniProt P21709).
T10 construct: purchased Life Technologies
The experiment in a line: Biochemical kinase profiling (Life Technologies). On the procedure: as §1

Assay [20] has as its target T11, FLT1 (VEGFR1) (Homo sapiens, UniProt P17948).
T11 construct: purchased Life Technologies
The experiment in a line: Biochemical kinase profiling (Life Technologies). The procedure: as §1

Assay [21] deals with AMPK A2/B1/G1 (Homo sapiens, UniProt P54619+P54646+Q9Y478). The experiment in a line: Biochemical kinase profiling (Life Technologies). On the procedure:
as §1

For assay [22], the target named is PIK3C3 (hVPS34) (Homo sapiens, UniProt Q8NEB9). As to the kind of experiment: Biochemical kinase profiling (Life Technologies). The procedure:
as §1

The pIC50 is the IC50 on a negative log10 scale, so that one unit is a factor of ten. A lower pIC50 goes with a large IC50.

T3 sequence (P35968 20-1356): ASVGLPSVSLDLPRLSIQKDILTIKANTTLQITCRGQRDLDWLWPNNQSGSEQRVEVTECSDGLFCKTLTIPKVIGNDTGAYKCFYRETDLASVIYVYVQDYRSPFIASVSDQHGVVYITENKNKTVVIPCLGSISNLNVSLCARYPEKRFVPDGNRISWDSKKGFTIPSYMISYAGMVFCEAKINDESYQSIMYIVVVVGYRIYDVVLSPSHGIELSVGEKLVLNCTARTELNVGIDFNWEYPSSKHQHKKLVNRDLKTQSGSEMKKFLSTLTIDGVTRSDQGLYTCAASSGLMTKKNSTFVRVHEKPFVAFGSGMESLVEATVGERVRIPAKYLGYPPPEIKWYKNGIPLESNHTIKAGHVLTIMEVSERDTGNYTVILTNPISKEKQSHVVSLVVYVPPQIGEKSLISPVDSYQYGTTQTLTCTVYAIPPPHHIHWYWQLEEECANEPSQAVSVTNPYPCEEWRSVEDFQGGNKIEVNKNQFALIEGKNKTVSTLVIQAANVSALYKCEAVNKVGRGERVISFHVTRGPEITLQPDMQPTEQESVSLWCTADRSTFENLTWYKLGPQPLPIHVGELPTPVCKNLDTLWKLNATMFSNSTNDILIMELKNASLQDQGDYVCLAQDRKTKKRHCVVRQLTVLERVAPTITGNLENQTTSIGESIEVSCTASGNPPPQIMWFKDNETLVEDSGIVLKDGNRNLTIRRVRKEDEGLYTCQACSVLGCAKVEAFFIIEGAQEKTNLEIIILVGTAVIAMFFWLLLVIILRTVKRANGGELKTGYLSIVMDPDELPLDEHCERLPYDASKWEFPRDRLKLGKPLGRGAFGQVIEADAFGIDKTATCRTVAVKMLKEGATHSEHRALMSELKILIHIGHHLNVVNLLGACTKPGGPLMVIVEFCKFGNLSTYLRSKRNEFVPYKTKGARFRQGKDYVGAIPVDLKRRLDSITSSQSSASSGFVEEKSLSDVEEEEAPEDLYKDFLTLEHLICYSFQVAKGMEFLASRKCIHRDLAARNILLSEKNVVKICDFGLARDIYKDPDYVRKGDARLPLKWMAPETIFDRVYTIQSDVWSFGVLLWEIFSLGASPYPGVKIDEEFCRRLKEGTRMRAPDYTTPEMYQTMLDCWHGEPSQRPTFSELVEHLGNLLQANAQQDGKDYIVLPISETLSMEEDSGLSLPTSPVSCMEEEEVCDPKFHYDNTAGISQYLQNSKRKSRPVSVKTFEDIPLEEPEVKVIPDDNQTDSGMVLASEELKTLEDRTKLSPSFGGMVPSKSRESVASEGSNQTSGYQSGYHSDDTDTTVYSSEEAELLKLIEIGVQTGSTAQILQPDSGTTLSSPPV
JAK1, sequence (P23458 whole entry): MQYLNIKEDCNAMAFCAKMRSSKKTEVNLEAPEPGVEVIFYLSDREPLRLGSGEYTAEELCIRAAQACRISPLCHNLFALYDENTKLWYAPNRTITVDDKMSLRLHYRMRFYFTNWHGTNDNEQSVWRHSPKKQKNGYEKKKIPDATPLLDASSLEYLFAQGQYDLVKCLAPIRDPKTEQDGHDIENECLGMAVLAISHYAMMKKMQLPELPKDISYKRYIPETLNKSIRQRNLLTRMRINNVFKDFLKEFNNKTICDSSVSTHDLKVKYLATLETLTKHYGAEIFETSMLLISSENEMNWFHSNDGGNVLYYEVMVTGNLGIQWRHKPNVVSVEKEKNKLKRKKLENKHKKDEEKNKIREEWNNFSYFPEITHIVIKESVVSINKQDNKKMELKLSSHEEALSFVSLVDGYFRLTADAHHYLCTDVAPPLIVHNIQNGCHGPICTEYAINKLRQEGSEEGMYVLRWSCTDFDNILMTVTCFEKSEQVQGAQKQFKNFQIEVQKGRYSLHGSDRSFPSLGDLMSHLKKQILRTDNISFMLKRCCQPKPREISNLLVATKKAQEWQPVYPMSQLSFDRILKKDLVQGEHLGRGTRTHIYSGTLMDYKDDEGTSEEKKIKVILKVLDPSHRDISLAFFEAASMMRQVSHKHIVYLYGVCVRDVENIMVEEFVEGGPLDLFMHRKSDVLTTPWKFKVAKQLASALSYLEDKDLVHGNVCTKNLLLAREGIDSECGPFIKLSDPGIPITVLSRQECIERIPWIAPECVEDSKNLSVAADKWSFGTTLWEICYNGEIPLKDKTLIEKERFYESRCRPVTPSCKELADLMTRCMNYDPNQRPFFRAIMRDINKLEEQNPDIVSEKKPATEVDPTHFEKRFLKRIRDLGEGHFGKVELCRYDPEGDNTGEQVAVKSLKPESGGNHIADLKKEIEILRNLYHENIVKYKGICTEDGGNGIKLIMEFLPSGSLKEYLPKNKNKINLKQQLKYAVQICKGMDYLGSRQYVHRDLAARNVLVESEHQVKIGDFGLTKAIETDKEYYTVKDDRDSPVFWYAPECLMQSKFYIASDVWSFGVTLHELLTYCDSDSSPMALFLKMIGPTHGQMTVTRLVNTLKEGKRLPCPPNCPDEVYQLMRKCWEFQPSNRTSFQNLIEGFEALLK

In the case of `Cc1cc2c(cc1C)[n+](Cc1ccccc1Br)cn2Cc1ccc2c(c1)CCO2.[Br-]` [B591, 3-(2-bromobenzyl)-1-((2,3-dihydrobenzofuran-5-yl)methyl) -5,6-dimethyl-1H-benzo[d]imidazol-3-ium bromide], in assay [1], the “IGF-1-stimulated translocation of Akt to the plasma membrane” value is on record as “potently prevented this translocation event in a concentration-dependent manner”. In addition, the pIC50 is less than 3.30 in [2]; less than 3.30 in assay [3]; less than 3.30 in assay [4]; 4.04 in assay [5]; less than 3.30 in assay [6]; less than 3.30 in assay [7]. Moreover, the pIC50 in assay [8] was less than 3.30; in [9], less than 3.30; in assay [10] it was less than 3.30; in [11] it was 3.75; in assay [12], less than 3.30; in assay [13], less than 3.30. For the same compound, the pIC50 in [14], in assay [15], in assay [16], in [17], in [18] and in assay [19] was less than 3.30 in each case. Moreover, the pIC50 in [20] was less than 3.30; in assay [21] it was less than 3.30; in [22] it was 3.99.
